Key:
Assay type in all cases: in vivo
[1] = test system: infection-free wheat plants of the cultivar Passat; experiment: Glasshouse trial: time of heading (ear emergence); parameters: time of heading of wheat (ears emerged): unit not given here
Experimental: (§1) In a glasshouse trial under controlled conditions, the effect of bixafen was investigated on the physiology, morphology and abiotic stress tolerance of infection-free wheat plants of the cultivar […] plants were grown in 10-litre containers over a period of 4 months. The substrate used was standard earth type ED 73 (Fröndenberg, Germany)+C-Horizont+Sand (4:2:1). The supply of nutrient to the plants took place by feeding with a 0.2% strength Flory 2 liquid fertilizer solution (from Euflor, Munich) once every two weeks. The plants were supplied with water as required. In each component of the trial, 10 repetitions were carried out.

[2] = test system: infection-free wheat plants of the cultivar Passat; experiment: Glasshouse trial: size of the flag leaf
Experimental: (§2) In a glasshouse trial under controlled conditions, the effect of bixafen was investigated on the physiology, morphology and abiotic stress tolerance of infection-free wheat plants of the cultivar […] plants were grown in 10-litre containers over a period of 4 months. The substrate used was standard earth type ED 73 (Fröndenberg, Germany)+C-Horizont+Sand (4:2:1). The supply of nutrient to the plants took place by feeding with a 0.2% strength Flory 2 liquid fertilizer solution (from Euflor, Munich) once every two weeks. The plants were supplied with water as required. In each component of the trial, 10 repetitions were carried out. To prevent infestation with powdery mildew, Proquinazid (Talius® was applied once. The incidence of aphids and spider mites was avoided by treatments with Karate®, Bulldock® and Sumicidin®. The products under test were applied to the plants, in the form of sequential spray sequences (BBCH 39 and 59). The spray volume was 300 l of water per hectare. [table] Morphological parameters measured, additionally, were the length and width, i.e. the size of the flag leaf. This was greatest with the succinate dehydrogenase (SDH) inhibitor bixafen, in comparison to the other comparison fungicides.

[3] = test system: wheat; experiment: Effect on the number of kernels/ear; conditions: 1st. trial
[4] = test system: infection-free wheat plants of the cultivar Passat; experiment: Glasshouse trial: temperature of ears and leaves as measure of transpiration activity
Experimental: as §1

[5] = test system: infection-free wheat plants of the cultivar Passat; experiment: Glasshouse trial: gas exchange activity of wheat ears; conditions: development stage BBCH 75
Experimental: as §1

[6] = test system: infection-free wheat plants of the cultivar Passat; experiment: Glasshouse trial: green leaf area by visual scoring; conditions: for green leaf area of the flag leaf (F) / green leaf area of the second-from-top leaf (F-1) / green leaf area of the third-from-top leaf (F-2): glasshouse
Experimental: as §2, with “The duration” for “Morphological parameters measured, additionally, were the length and width, i.e. the size”, “green coloration of the leaf area” for “flag leaf. This”, “captured on” for “greatest with”, “basis of regular visual scoring of” for “succinate dehydrogenase (SDH) inhibitor bixafen, in comparison to”, “fraction of the green leaf area.” for “other comparison fungicides.”

[7] = test system: wheat variety Ritmo; experiment: Plot trial in Germany: green leaf area by visual scoring; conditions: for green leaf area of the flag leaf / green leaf area of the second-from-top leaf (F-1) / green leaf area of the third-from-top leaf (F-2): sprays at BBCH 39 and 59
Experimental: In Germany a plot trial was set up with the wheat variety Ritmo in order to investigate the effect of bixafen on the physiology, morphology and abiotic stress tolerance of wheat plants under realistic agricultural conditions. The products under test were applied to the plants, in the form of sequential spray sequences (BBCH 39 and 59). The spray volume was 400 l of water per hectare. In each trial component, 5 repetitions were carried out. [table] The duration of green coloration of the leaf area was captured by regular visual scoring of the fraction of green leaf area.

[8] = test system: wheat variety Ritmo; experiment: Plot trial: yield components; conditions: sprays at BBCH 39 and 59
[9] = glasshouse trial, statement in words
[10] = 68 days after second fungicide application (so in the source)
[11] = 75 days after second fungicide application (so in the source)
[12] = 82 days after second fungicide application (so in the source)
[13] = 89 days after second fungicide application (so in the source)
[14] = 96 days after second fungicide application (so in the source)
[15] = 103 days after second fungicide application (so in the source)
[16] = 110 days after second fungicide application (so in the source)
[17] = 117 days after second fungicide application (so in the source)
[18] = 7 days after second fungicide application
[19] = 14 days after second fungicide application
[20] = 21 days after second fungicide application
[21] = 28 days after second fungicide application
[22] = 35 days after second fungicide application
[23] = 42 days after second fungicide application

Compound: Cn1cc(C(=O)Nc2ccc(F)cc2-c2ccc(Cl)c(Cl)c2)c(C(F)F)n1 [Bixafen, N-(3′,4′-dichloro-5-fluoro-1,1′-biphenyl-2-yl)-3-(difluoromethyl)-1-methyl-1H-pyrazole-4-carboxamide]
- time of heading of wheat (ears emerged) ([1]; 45 days after sowing): 1.8
- time of heading of wheat (ears emerged) ([1]; 50 days after sowing): 15.5
- time of heading of wheat (ears emerged) ([1]; 55 days after sowing): 42.2
- time of heading of wheat (ears emerged) ([1]; 60 days after sowing): 57.0
- time of heading of wheat (ears emerged) ([1]; 65 days after sowing): 78.0
- time of heading of wheat (ears emerged) ([1]; 70 days after sowing): 88.7
- time of heading of wheat (ears emerged) ([1]; 75 days after sowing): 93.5
- time of heading of wheat (ears emerged) ([1]; 80 days after sowing): 96.7
- time of heading of wheat (ears emerged) ([1]; 85 days after sowing): 98.5
- uniformity of heading (ear emergence) [1, 9]: the heading is more uniform
- Length of the flag leaf ([2]; at BBCH 83-85): 28.1 cm
- Width of the flag leaf ([2]; at BBCH 83-85): 1.7 cm
- Area of the flag leaf ([2]; at BBCH 83-85, calculated using the formula A = 0.67 × length × width): 32.01 cm^2
- Area [rel.] of the flag leaf ([2]; at BBCH 83-85, untreated = 100): 146 rel.
- size (length and width) of the flag leaf compared with the other comparison fungicides [2, 9]: greatest
- Kernels/ear ([3]; applied at BBCH 33 + 59, twice 125 g a.i.): 41.7
- Kernels/ear ([3]; applied at BBCH 39 (bixafen 125 g a.i.; bixafen + prothioconazole 75 + 150 g a.i.)): 42.6
- Temperature (as a measure of the transpiration activity) ([4]; BBCH 75, ear): 22.3 °C
- Temperature (as a measure of the transpiration activity) ([4]; BBCH 75, leaf): 22.1 °C
- Temperature (as a measure of the transpiration activity) ([4]; BBCH 80, ear): 18.2 °C
- Temperature (as a measure of the transpiration activity) ([4]; BBCH 80, leaf): 16.4 °C
- Temperature (as a measure of the transpiration activity) ([4]; BBCH 85, ear): 24.5 °C
- Temperature (as a measure of the transpiration activity) ([4]; BBCH 85, leaf): 23.3 °C
- Temperature (as a measure of the transpiration activity) ([4]; BBCH 90, ear): 24.1 °C
- Temperature (as a measure of the transpiration activity) ([4]; BBCH 90, lear (so in the source)): 22.3 °C
- Photosynthesis (gas exchange activity of wheat ears) [5]: -5.94 CO2 per ear
- Respiration (gas exchange activity of wheat ears) [5]: 6.12 CO2 per ear
- green leaf area of the flag leaf (F) [6, 10]: 100 % leaf area
- green leaf area of the second-from-top leaf (F-1) [6, 10]: 100 % leaf area
- green leaf area of the third-from-top leaf (F-2) [6, 10]: 100 % leaf area
- green leaf area of the flag leaf (F) [6, 11]: 100 % leaf area
- green leaf area of the second-from-top leaf (F-1) [6, 11]: 100 % leaf area
- green leaf area of the third-from-top leaf (F-2) [6, 11]: 95 % leaf area
- green leaf area of the flag leaf (F) [6, 12]: 100 % leaf area
- green leaf area of the second-from-top leaf (F-1) [6, 12]: 95 % leaf area
- green leaf area of the third-from-top leaf (F-2) [6, 12]: 80 % leaf area
- green leaf area of the flag leaf (F) [6, 13]: 95 % leaf area
- green leaf area of the second-from-top leaf (F-1) [6, 13]: 85 % leaf area
- green leaf area of the third-from-top leaf (F-2) [6, 13]: 52 % leaf area
- green leaf area of the flag leaf (F) [6, 14]: 88 % leaf area
- green leaf area of the second-from-top leaf (F-1) [6, 14]: 57 % leaf area
- green leaf area of the third-from-top leaf (F-2) [6, 14]: 29 % leaf area
- green leaf area of the flag leaf (F) [6, 15]: 65 % leaf area
- green leaf area of the second-from-top leaf (F-1) [6, 15]: 33 % leaf area
- green leaf area of the third-from-top leaf (F-2) [6, 15]: 15 % leaf area
- green leaf area of the flag leaf (F) [6, 16]: 38 % leaf area
- green leaf area of the second-from-top leaf (F-1) [6, 16]: 20 % leaf area
- green leaf area of the third-from-top leaf (F-2) [6, 16]: 6 % leaf area
- green leaf area of the flag leaf (F) [6, 17]: 15 % leaf area
- green leaf area of the second-from-top leaf (F-1) [6, 17]: 5 % leaf area
- green leaf area of the third-from-top leaf (F-2) [6, 17]: 0 % leaf area
- effect on the duration of the green leaf area of the wheat plant [6, 9]: pronounced effect
- green leaf area of the flag leaf [7, 18]: 98.9 % leaf area
- green leaf area of the second-from-top leaf (F-1) [7, 18]: 98.4 % leaf area
- green leaf area of the third-from-top leaf (F-2) [7, 18]: 96.4 % leaf area
- green leaf area of the flag leaf [7, 19]: 98.7 % leaf area
- green leaf area of the second-from-top leaf (F-1) [7, 19]: 98.3 % leaf area
- green leaf area of the third-from-top leaf (F-2) [7, 19]: 96.3 % leaf area
- green leaf area of the flag leaf [7, 20]: 98.8 % leaf area
- green leaf area of the second-from-top leaf (F-1) [7, 20]: 98.5 % leaf area
- green leaf area of the third-from-top leaf (F-2) [7, 20]: 94.5 % leaf area
- green leaf area of the flag leaf [7, 21]: 96.7 % leaf area
- green leaf area of the second-from-top leaf (F-1) [7, 21]: 94.8 % leaf area
- green leaf area of the third-from-top leaf (F-2) [7, 21]: 91.8 % leaf area
- green leaf area of the flag leaf [7, 22]: 73.0 % leaf area
- green leaf area of the second-from-top leaf (F-1) [7, 22]: 60.0 % leaf area
- green leaf area of the third-from-top leaf (F-2) [7, 22]: 37.5 % leaf area
- green leaf area of the flag leaf [7, 23]: 26.7 % leaf area
- green leaf area of the second-from-top leaf (F-1) [7, 23]: 9.2 % leaf area
- green leaf area of the third-from-top leaf (F-2) [7, 23]: 3.4 % leaf area
- green leaf area of the second-from-top leaf (F-1) ([7]; 49 days after second fungicide application): 0 % leaf area
- effect on the duration of the green leaf area of the wheat plant ([7]; plot trial, statement in words): pronounced effect
- Ears/m^2 [8]: 417
- Harvest Index [8]: 58.5
- Straw [8]: 590 g m^−2
- TKM (thousand-kernel mass) [8]: 47.7 g
- Yield [8]: 8.5 t ha^−1

— US20110196000A1, “Use of succinate dehydrogenase (SDH) inhibitors in the treatment of plant species from the family of the true grasses” (Bayer CropScience AG, priority 2010, published 2011)
